Results: PubChem BioAssay AID179 (DTP/NCI, 2004)
Calls of active or inactive are those of the source.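 Rule for the calls: active = compounds giving half or more protection of infected cells from virus-caused growth loss, again on retest; inactive = the rest.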 Where a SMILES comes first, the peptide text is derived from it.

System: CEM cells HIV-1 protection, formazan growth assay
Assay: NCI AIDS Antiviral Assay
Conditions: for IC50: measured here: growth of uninfected CEM cells
Procedure, shortened: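 Category rules: moderately active means at least 50% protection on retest, and confirmed active means 100% protection reproducibly. The underlying data came from a formazan growth assay in HIV-1-infected CEM cells.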

Row | SMILES | EC50 | IC50 | outcome
1 | COc1cc(COC(=O)N2CCCCC2C(=O)O)c([N+](=O)[O-])cc1OC (centres undefined) | > 676 µM | 457 µM | 
2 | O=C(O)Cn1ncn(NC(=O)Cc2ccccc2)c1=S | > 200 µM | > 200 µM | 
3 | COC(=O)C(C(=O)C(=O)Nc1c(Cl)cc([N+](=O)[O-])cc1Cl)c1csc(-n2nc(C3=CCCCC3)cc2-c2ccccc2)n1 (centres undefined) | > 107 µM | > 107 µM | 
4 | CCCCCC/C=C\CCCCCCCCCc1cccc(OC)c1O | > 200 µM | > 200 µM | 
5 | NNC(=O)CCC(NS(=O)(=O)c1ccc(Cl)cc1)C(=O)NN (centres undefined) | > 200 µM | 145 µM | 
6 | COC(=O)N/N=C(/c1nc2ccc([N+](=O)[O-])cc2[nH]c1=O)C(O)c1ccc(OC)c(OC)c1 (centres undefined) | > 110 µM | > 110 µM | 
7 | COc1ccc(N2C(=O)[C@H]3CC(C)c4c([nH]c5ccccc45)[C@H]3C2=O)cc1 (some centres undefined) | > 41.7 µM | 0.871 µM | 
8 | CC1CN=C(Nc2ccc(F)cc2F)S1 (centres undefined) | > 200 µM | > 200 µM | 
9 | CN(C)CC(CO)(CN(C)C)CN(C)C | > 200 µM | > 200 µM | 
10 | O=C1C/C(Br)=C\c2ccccc2-c2ccccc21 | > 1.12 µM | 0.389 µM | 
11 | CN(Cc1cnc2nc(N)nc(N)c2n1)c1ccc(C(=O)NC(CCC(=O)NCCC(P(=O)(O)O)P(=O)(O)O)C(=O)O)cc1 (centres undefined) | > 200 µM | 3.63 µM | 
12 | CC(=O)c1c(C)nc(SSc2nc(C)c(C(C)=O)c(-c3ccc(Cl)cc3)c2C#N)c(C#N)c1-c1ccc(Cl)cc1 | > 200 µM | > 200 µM | 
13 | CC(C)(C)C(=O)OCOP(=O)(OCCOCn1cnc2c(=O)[nH]c(N)nc21)OCOC(=O)C(C)(C)C |  |  | inactive
14 | O=C1C(Cl)C(c2ccc([N+](=O)[O-])cc2)N1n1cnc2ccccc2c1=O (centres undefined) | > 7.41 µM | > 7.41 µM | 
15 | O=C1OC(=O)C23CSCC12C1C=CC3O1 (centres undefined) | > 417 µM | > 417 µM | 
16 | CCOC(=O)C1=C(OC(OCC)C([Se]c2ccccc2)C(C)C)CCC1 (centres undefined) | > 23.4 µM | > 23.4 µM | 
17 | CCOC(=O)C(C(=O)OCC)C(NC(=O)Nc1cc(C(F)(F)F)ccc1OC)(C(F)(F)F)C(F)(F)F |  |  | inactive
18 | Cc1cn(CCCCCOC(=O)NC(CCCNC(N)=O)C(=O)O)c(=O)[nH]c1=O (centres undefined) | > 200 µM | > 200 µM | 
19 | O=C(/C=C/c1ccncc1)c1ccccc1 | > 324 µM | 6.03 µM | 
20 | Cn1c(=O)[nH]c2c(c1=O)Cc1ccccc1S2(=O)=O | > 389 µM | 148 µM | 
21 | O=C1C2C3CCC(C3)C2S(=O)(=O)C2C3CCC(C3)C12 (centres undefined) | > 200 µM | > 200 µM | 
22 | CCOC(=O)COc1ccc2c(C)c(CCN(CC)CC)c(=O)oc2c1 | > 631 µM | > 631 µM | 

Row | SMILES | EC50 | IC50 | outcome
23 | COC(=O)N/N=C(\C(=O)Nc1cccc([N+](=O)[O-])c1)c1nc2ccc([N+](=O)[O-])cc2[nH]c1=O | > 148 µM | > 148 µM | 
24 | CCC(C)C(NC(=O)C(N)CCCCN)C(=O)NC(CCC(N)=O)C(=O)NC(CO)C(=O)NC(C(=O)O)C(C)O (centres undefined) (H-KIQST-OH; configuration not given here) | > 115 µM | > 115 µM | 
25 | N#Cc1c(C#N)c(SSc2c(C#N)c(C#N)c(N)n2-c2ccccc2)n(-c2ccccc2)c1N | > 20 µM | 1.95 µM | 
26 | O=C(O)c1ccc2nc(-c3ccccn3)c(-c3ccccn3)nc2c1 | > 200 µM | > 200 µM | 
27 | CC(C)CC(NC(=O)C(Cc1ccc(O)cc1)NC(=O)C(CO)NC(=O)C(C)NC(=O)C(CCCN=C(N)N)NC(=O)C(CCC(N)=O)NC(=O)C(NC(=O)C(N)CCC(=O)O)C(C)C)C(=O)NC(CO)C(=O)NC(CCCCN)C(=O)O (centres undefined) (H-EVQRASYLSK-OH; configuration not given here) |  |  | inactive
28 | CCCCN(CCCC)NC(=S)Nc1ccccc1 | > 35.5 µM | > 35.5 µM | 
29 | COc1ccc(S(=O)(=O)Cc2ccc(C(=O)O)cc2[N+](=O)[O-])cc1 | > 708 µM | 646 µM | 
30 | CC1(c2ccccc2Cl)C(C#N)C(=O)NC(=O)C1C#N (centres undefined) | > 91.2 µM | 46.8 µM | 
31 | COC(=O)[C@]1(c2ccc(N(C)C)cc2OC)C[C@@H]2CCCN(CCc3c1[nH]c1ccccc31)C2 |  |  | inactive
32 | CCC12CCCNC1c1c(n(C)c3ccccc13)C(C(=O)OC)C2 (centres undefined) | > 37.2 µM | 34.7 µM | 
33 | CC(C)(C)C(=O)OCOP(=O)(OCOC(=O)C(C)(C)C)OCC1CCC(n2ccc(=O)[nH]c2=O)O1 (centres undefined) | 3.39 µM | 72.4 µM | 
34 | CC(C)(C)CP(=S)(CCP(CCP(=S)(CC(C)(C)C)CC(C)(C)C)CCP(=S)(CC(C)(C)C)CC(C)(C)C)CC(C)(C)C | > 12.3 µM | > 12.3 µM | 
35 | Nc1nc2nc3c(nc2c(=O)[nH]1)CN(C1CCCCC1)C3=O | > 74.1 µM | > 74.1 µM | 
36 | COc1cc(C(C#N)S(=O)(=O)O)ccc1O (centres undefined) | > 200 µM | > 200 µM | 
37 | Cc1ccc(O)c(-c2cscn2)c1 | > 200 µM | 107 µM | 
38 | O=C1NC(=O)c2ccccc2/C1=C/c1ccc2c(c1)OCO2 | > 200 µM | 2.09 µM | 
39 | CCOC(CCNCC(OCC)OCC)OCC | > 200 µM | > 200 µM | 
40 | CC(C(=O)O)c1cnn(-c2ccccc2)c1-n1cccc1 (centres undefined) |  |  | inactive
41 | CC[C@@H]1CC2CN3CCc4c([nH]c5ccc(OC)cc45)C(CO)(C2)C13 (some centres undefined) |  |  | inactive
42 | NC(=O)C(N)C(F)c1ccccc1 (centres undefined) | > 200 µM | > 200 µM | 
43 | Cc1nc2c(cc1C(=O)NN)c(=O)n(C)c(=O)n2C | > 200 µM | > 200 µM | 
44 | CCOC(=O)c1cnc(SCc2ccc(Cl)c(Cl)c2)nc1N1CC1C (centres undefined) | > 200 µM | 6.46 µM | 

Row | SMILES | EC50 | IC50 | outcome
45 | CCN1CCCCC(=N\O)/C(=N/O)CCCC1 | > 741 µM | > 741 µM | 
46 | C=C1C(O)CC[C@]2(C)C1C1OC(C)(C)O[C@]13CC(=O)C(C)=C([C@H]1OC(C)(C)OC12)C3(C)C (some centres undefined) | > 200 µM | > 200 µM | 
47 | N/C(=N/O)C(F)(F)C(F)(F)C(F)(F)/C(N)=N\O | > 200 µM | > 200 µM | 
48 | CCOC(=O)C1Nc2ccc([N+](=O)[O-])cc2[C@H]2OCC[C@@H]12 (some centres undefined) | > 447 µM | > 447 µM | 
49 | CC(=O)N(CCc1ccccc1)C(C#N)c1ccccc1 (centres undefined) | > 200 µM | > 200 µM | 
50 | N#CC(C(=O)CCCC(=O)Nc1ccc(Cl)cc1Cl)c1ccc(Cl)cc1 (centres undefined) |  |  | inactive
51 | Nc1nc2c(ncn2CC2CCOC2=O)c(=O)[nH]1 (centres undefined) |  |  | inactive
52 | Cc1cccc2ns[s+]c12 | > 18.6 µM | > 18.6 µM | 
53 | O=P1(CCc2ccc(Cl)cc2)CC(Br)C(Br)C1 (centres undefined) | > 631 µM | 38 µM | 
54 | CC(=O)Nc1ccc(C(=O)N[C@@H]2C(=O)N3[C@@H]2SC(C)(C)[C@@H]3C(=O)O)cn1 | 56.2 µM | 75.9 µM | 
55 | C=CC(C)NC(=S)NNC(=S)NC (centres undefined) | > 200 µM | 89.1 µM | 
56 | CC(=O)OCC1OC(OC(C)=O)C(NC(=O)CI)C(OC(C)=O)C1OC(C)=O (centres undefined) | > 490 µM | 2.57 µM | 
57 | C[C@@H]1C[C@@H]2C(=O)N(c3ccccc3)C(=O)[C@@H]2c2[nH]c3ccc(Br)cc3c21 |  |  | inactive
58 | CCCCC1N=CNc2c1ccc1c2[nH]c2ccccc21 (centres undefined) | > 25.7 µM | 6.17 µM | 
59 | CO/C=C/CCCN(C1CCCCC1)C(C#N)c1ccccc1 (centres undefined) | > 16.6 µM | > 16.6 µM | 
60 | CC1=CC2=C(C#N)C(=O)OC2(C)C(c2ccccc2)C1 (centres undefined) | > 200 µM | 117 µM | 
61 | CCOC(=O)C(=[N+]=[N-])C(=O)CN1C(=O)C2CC(C)=C(C)CC2C1O (centres undefined) | > 389 µM | > 389 µM | 
62 | Cc1cccc(/C=N/NC(=S)N(C)CCc2ccccn2)n1 | > 2 µM | 0.0331 µM | 
63 | N#CCC1C2CC3C(C2=O)C13 (centres undefined) | > 200 µM | > 200 µM | 
64 | CN1C(=O)c2ccccc2NC(=O)c2cnn(C)c21 |  |  | inactive
65 | CC(C)C(=O)N1Cc2cc(Cl)cc(Cl)c2OC(=O)c2ccccc21 | > 29.5 µM | 3.02 µM | 
66 | Cc1sc(N=Nc2c(O)[nH]c3ccccc23)nc1-c1ccccc1 | > 200 µM | 43.7 µM | 

Row | SMILES | EC50 | IC50 | outcome
67 | C=C(CN(C)C)C1(c2ccccc2)CC2(CCCC2)C(=O)O1 (centres undefined) | > 200 µM | 38 µM | 
68 | Cc1ncc([N+](=O)[O-])n1CCNC(=O)Cn1ccnc1[N+](=O)[O-] | > 200 µM | > 200 µM | 
69 | CCOP(=O)(OCC)C1=NC=CC=CC1n1c(-c2ccccc2)nn(CC)c1=O (centres undefined) | > 603 µM | 417 µM | 
70 | CC1(C)O[C@H]2OC(CO)C(OS(C)(=O)=O)[C@H]2O1 (some centres undefined) | > 200 µM | > 200 µM | 
71 | Cn1c(=O)[nH]c(=O)c2[nH]c(=O)c(=O)n(C)c21 | > 200 µM | > 200 µM | 
72 | COc1ccc(/C=C(\C(=O)OCC(C)C)c2ccc(OC)c(OC)c2)cc1OC | > 200 µM | 166 µM | 
73 | CC(=O)Oc1cccc2c1[nH]c(=O)c1c(OC(C)=O)c3c(cc12)OCO3 |  |  | inactive
74 | CC1(C)N=[N+]([O-])C1(C)C | > 200 µM | > 200 µM | 
75 | CCOC(=O)CC(NC(=O)c1nc[nH]c1[N+](=O)[O-])C(=O)OCC (centres undefined) | > 79.4 µM | 39.8 µM | 
76 | S=C1NC=CC(S)N1 (centres undefined) | > 200 µM | > 200 µM | 
77 | C[n+]1c(/C=C/c2ccc(/C=N/NC(=O)c3ccc(C(=O)N/N=C/c4ccc(/C=C/c5cn6ccccc6[n+]5C)cc4)cc3)cc2)cn2ccccc21 | > 3.55 µM | > 3.55 µM | 
78 | O=C(Cn1nc(Br)c(Br)c1Br)c1ccccc1 | > 200 µM | 19.5 µM | 
79 | O=S(=O)(c1ccccc1)c1nccs1 | 110 µM | 575 µM | 
80 | C1=Nc2ccccc2Cn2nncc21 | > 1350 µM | 21.9 µM | 
81 | NC(Cc1ccccc1)C(=O)OCN1C(=O)C2C3C=CC(C2C1=O)C1C2C(=O)N(COC(=O)C(N)Cc4ccccc4)C(=O)C2C31 (centres undefined) | > 200 µM | 31.6 µM | 
82 | O=[N+]([O-])c1ccc2c(c1)OCCOCCOc1ccc([N+](=O)[O-])cc1OCCOCCO2 |  |  | inactive
83 | CC1=NCCC[N-]CC[N-]CCCN=C1C.[Ni+2].[O-][Cl+3]([O-])([O-])O | > 200 µM | > 200 µM | 
84 | CC(CC(=O)N(C)[C@H](C[C@@H](C)C(Cl)(Cl)Cl)c1nccs1)C(Cl)(Cl)Cl (some centres undefined) |  |  | inactive
85 | Oc1ccc2cc(SSc3ccc4cc(O)ccc4c3)ccc2c1 | > 200 µM | 8.13 µM | 
86 | CN(N=O)C(=O)N[C@@H](C=O)[C@@H](O)[C@H](O)[C@H](O)CO | > 933 µM | > 933 µM | 
